Data reported in ChEMBL document CHEMBL4483862, “Open-source discovery of chemical leads for next-generation chemoprotective antimalarials” (2018).
pIC50: −log10 of the molar value.

Test system: Plasmodium berghei
Assay: Luciferase/luciferin-expressing antifolate-resistant parasites were used to infect a culture of HepG2 cells that were pre-incubated with compounds. Infected hepatocytes emit light due to the luciferase reaction. Assay results are presented as the percent inhibition of light emission compared to control. […]
Type: functional
Conditions: sporozoite; for IC90: read-out: LUCIFERASE INFECTION ASSAY - IC90
[1] = read-out: LUCIFERASE INFECTION ASSAY - IC50

## CC(C1CC2CCC1C2)n1c(SCc2nnc(-c3ccccc3)o2)nnc1-c1ccco1 (configuration not stated)
FFLUC_HILL_SLOPE 12, FFLUC_R_SQUARED 0.233, read-out: LUCIFERASE INFECTION ASSAY - IC50
  pIC50: < 5.00
  IC90: > 10 µM

## CCc1c(C)sc(NC(=O)c2c(-c3ccccc3)noc2C)c1C(=O)OC
PBLUC_HILL_SLOPE 4.81, PBLUC_R_SQUARED 0.194, read-out: LUCIFERASE INFECTION ASSAY - IC50
  pIC50: 5.25
  IC90: > 8.58 µM

## CC(C)Oc1ccc(-c2nc3c4c5c(sc4ncn3n2)CN(C)CC5)cc1
HEPG2TOX_HILL_SLOPE 0.881, HEPG2TOX_R_SQUARED 0.629, PBLUC_HILL_SLOPE 9.03, PBLUC_R_SQUARED 0.277, read-out: LUCIFERASE INFECTION ASSAY - IC50
  pIC50: 5.08
  IC90: > 8.7 µM

## O=C(NCCCC(=O)N1CCC(c2ccc(O)cc2)CC1)c1ccsc1
[1]
  pIC50: < 5.00
  IC90: > 10 µM

## Cc1ccc(Sc2ccc(NC(=O)C3CC(=O)N(C4CC4)C3)cc2)c(C)c1 (configuration not stated)
[1]
  pIC50: < 5.00
  IC90: > 10 µM

## O=C(/C=C/c1cccs1)N1CCN(S(=O)(=O)c2c(Cl)cc(Br)cc2Cl)CC1
PBLUC_HILL_SLOPE 3.28, PBLUC_R_SQUARED 0.115, read-out: LUCIFERASE INFECTION ASSAY - IC50
  pIC50: 5.27
  IC90: > 10 µM

## COc1ccc2[nH]cc(C(=O)CN3CCC(Cc4ccccc4)CC3)c2c1
PBLUC_HILL_SLOPE 15.2, PBLUC_R_SQUARED 0.148, read-out: LUCIFERASE INFECTION ASSAY - IC50
  pIC50: 5.07
  IC90: > 9.1 µM

## Cc1ccc(NC(=O)N2CCCN(c3nc4ccc(Cl)cc4s3)CC2)cc1
HEPG2TOX_HILL_SLOPE 1.45, HEPG2TOX_R_SQUARED 0.845, PBLUC_HILL_SLOPE 2.38, PBLUC_R_SQUARED 0.538, read-out: LUCIFERASE INFECTION ASSAY - IC50
  pIC50: 5.44
  IC90: > 8.23 µM

## Cc1ccc(OCC(=O)NS(=O)(=O)c2ccccc2)cc1
[1]
  pIC50: < 4.97
  IC90: > 10.8 µM

## Cc1sc2ncnc(Sc3nnnn3-c3ccc(Cl)cc3)c2c1C
[1]
  pIC50: < 5.00
  IC90: > 10 µM

## OC(COc1ccccc1F)CN1CCN(Cc2csc3ccccc23)CC1 (configuration not stated)
PBLUC_HILL_SLOPE 13.5, PBLUC_R_SQUARED 0.264, read-out: LUCIFERASE INFECTION ASSAY - IC50
  pIC50: < 5.00
  IC90: > 10 µM

## CCc1cccc(CC)c1NC(=O)COC(=O)c1[nH]c(C)c(C(C)=O)c1C
[1]
  pIC50: < 5.00
  IC90: > 10 µM

## CCn1nc(C)c(Sc2nccn2C)c1C
HEPG2TOX_HILL_SLOPE 10.5, HEPG2TOX_R_SQUARED 0.481, PBLUC_HILL_SLOPE 1.71, PBLUC_R_SQUARED 0.393, read-out: LUCIFERASE INFECTION ASSAY - IC50
  pIC50: 5.33
  IC90: > 14 µM

## O=C(Nc1cccc(C(F)(F)F)c1)Nc1ccc2nc(-c3ccncc3)nn2c1
[1]
  pIC50: < 5.00
  IC90: > 10 µM

## N#CC(C#N)=NNc1ccc(F)cc1F
HEPG2TOX_HILL_SLOPE 0.862, HEPG2TOX_R_SQUARED 0.0964, read-out: LUCIFERASE INFECTION ASSAY - IC50
  pIC50: < 4.80
  IC90: > 16 µM

## COc1ccc(Cl)cc1NC(=O)CCN1CCN(c2ncc(C(F)(F)F)cc2Cl)CC1
[1]
  pIC50: 5.31
  IC90: 9.88 µM

## CCCCNC(=O)c1c(NC(=O)C(C)Oc2ccccc2)nc2ccc(C)cn12 (configuration not stated)
HEPG2TOX_HILL_SLOPE 6.71, HEPG2TOX_R_SQUARED 0.423, PBLUC_HILL_SLOPE 12, PBLUC_R_SQUARED 0.638, read-out: LUCIFERASE INFECTION ASSAY - IC50
  pIC50: 5.14
  IC90: > 8.37 µM

## CO/N=C1\CCCc2c(C(=O)N/N=C/c3ccc(Cl)cc3)sc(SC)c21
HEPG2TOX_HILL_SLOPE 0.585, HEPG2TOX_R_SQUARED 0.788, PBLUC_HILL_SLOPE 2.34, PBLUC_R_SQUARED 0.687, read-out: LUCIFERASE INFECTION ASSAY - IC50
  pIC50: 6.23
  IC90: 1.51 µM

## C=CCN(C(=O)c1ccccc1Br)c1nc2ccccc2s1
[1]
  pIC50: < 5.00
  IC90: > 10 µM

## COc1ccc(-c2nnc(SC(C)C(=O)NCCC3=CCCCC3)[nH]2)cc1 (configuration not stated)
HEPG2TOX_HILL_SLOPE 1.28, HEPG2TOX_R_SQUARED 0.906, PBLUC_HILL_SLOPE 22.1, PBLUC_R_SQUARED 0.622, read-out: LUCIFERASE INFECTION ASSAY - IC50
  pIC50: 6.46
  IC90: 0.379 µM

## Cc1cc2oc(=O)cc(CN3CCN(S(=O)(=O)c4ccc([N+](=O)[O-])cc4)CC3)c2cc1Cl
[1]
  pIC50: 5.38
  IC90: 8.57 µM

## CC(=O)Nc1ccc(NC(=O)/C(C#N)=C/c2c(Cl)cccc2Cl)cc1
PBLUC_HILL_SLOPE 14.2, PBLUC_R_SQUARED 0.281, read-out: LUCIFERASE INFECTION ASSAY - IC50
  pIC50: 5.03
  IC90: > 10 µM

## C=CCSc1nnc(-c2ccc(C(C)(C)C)cc2)n1-c1ccc(C(C)C)cc1
HEPG2TOX_HILL_SLOPE 6.39, HEPG2TOX_R_SQUARED 0.425, PBLUC_HILL_SLOPE 3, PBLUC_R_SQUARED 0.616, read-out: LUCIFERASE INFECTION ASSAY - IC50
  pIC50: < 5.07
  IC90: > 8.43 µM

## CCN(CC)S(=O)(=O)c1ccc2[nH]c(=O)cc(C(=O)Nc3cc(Cl)c(OC)cc3OC)c2c1
[1]
  pIC50: < 5.00
  IC90: > 10 µM

## CCCNC(=O)c1c(NC(=O)c2cc(F)ccc2F)nc2ccc(C)cn12
FFLUC_HILL_SLOPE 10.5, FFLUC_R_SQUARED 0.751, HEPG2TOX_HILL_SLOPE 1.41, HEPG2TOX_R_SQUARED 0.982, PBLUC_HILL_SLOPE 15, PBLUC_R_SQUARED 0.726, read-out: LUCIFERASE INFECTION ASSAY - IC50
  pIC50: 5.99
  IC90: 1.18 µM

## O=C(Nc1nnc(C2CC2)s1)c1cccc(S(=O)(=O)N2CCc3ccccc32)c1
[1]
  pIC50: < 5.00
  IC90: > 10 µM

## Oc1ccc(Nc2nccc3[nH]c(-c4cccc(F)c4)cc23)cc1
PBLUC_HILL_SLOPE 3.41, PBLUC_R_SQUARED 0.615, read-out: LUCIFERASE INFECTION ASSAY - IC50
  pIC50: 5.37
  IC90: 8.12 µM

## CC(C)c1ccccc1N(C(=O)C1CCC1)c1nc2ccccc2s1
[1]
  pIC50: < 5.00
  IC90: > 10 µM

## CCOC(=O)C(NC(=O)c1ccco1)(Nc1ccc(F)c(Cl)c1)C(F)(F)F (configuration not stated)
[1]
  pIC50: < 5.09
  IC90: > 8.07 µM

## CC(NCc1ccc(-c2ccccc2)s1)c1ccc(-n2ccnc2)cc1 (configuration not stated)
PBLUC_HILL_SLOPE 1.59, PBLUC_R_SQUARED 0.529, read-out: LUCIFERASE INFECTION ASSAY - IC50
  pIC50: 5.15
  IC90: > 10 µM

## Cc1ccc(Cl)cc1NC(=S)N/N=C\c1cccc2ccccc12
[1]
  pIC50: 6.09
  IC90: 1.85 µM

## Cc1nc(CCNC(=O)Cc2cn(-c3ccccc3)nc2-c2ccc(Cl)cc2)cs1
HEPG2TOX_HILL_SLOPE 0.133, HEPG2TOX_R_SQUARED 0.316, PBLUC_HILL_SLOPE 7.24, PBLUC_R_SQUARED 0.0479, read-out: LUCIFERASE INFECTION ASSAY - IC50
  pIC50: 5.06
  IC90: > 10 µM

## CN(c1ccccc1)S(=O)(=O)c1ccc(C(=O)Nc2nn3cc(-c4ccccc4)nc3s2)cc1
HEPG2TOX_HILL_SLOPE 0.762, HEPG2TOX_R_SQUARED 0.67, PBLUC_HILL_SLOPE 10.6, PBLUC_R_SQUARED 0.0386, read-out: LUCIFERASE INFECTION ASSAY - IC50
  pIC50: < 5.00
  IC90: > 10 µM

## Cc1cc(C(=O)CN(C)Cc2nc(=O)c3ccccc3[nH]2)c(C)n1Cc1ccc(F)cc1
PBLUC_HILL_SLOPE 13.1, PBLUC_R_SQUARED 0.161, read-out: LUCIFERASE INFECTION ASSAY - IC50
  pIC50: 5.05
  IC90: > 10 µM

## CCCCc1ccc(N(C(=O)Nc2ccc(Cl)cc2)C2=NC(CC)CS2)cc1 (configuration not stated)
PBLUC_HILL_SLOPE 93.6, PBLUC_R_SQUARED 0.111, read-out: LUCIFERASE INFECTION ASSAY - IC50
  pIC50: 5.00
  IC90: > 10 µM

## COC(=O)/C(O)=C/C(=O)c1c(C)[nH]c(C(=O)OC)c1C
[1]
  pIC50: < 5.00
  IC90: > 10 µM

## CC(=O)c1cccc(-c2cnc3cnc(-c4ccccc4)cn23)c1
PBLUC_HILL_SLOPE 2.79, PBLUC_R_SQUARED 0.249, read-out: LUCIFERASE INFECTION ASSAY - IC50
  pIC50: 5.04
  IC90: > 10.5 µM

## CN(C)c1ccc(/C=C(\C#N)c2nc3ccccc3[nH]2)cc1
[1]
  pIC50: < 4.94
  IC90: > 11.4 µM

## CC(C)c1ccc(NC(=O)C2=COC3=NC(=O)N(Cc4cccc(C#N)c4)CCN23)cc1
HEPG2TOX_HILL_SLOPE 1.33, HEPG2TOX_R_SQUARED 0.794, PBLUC_HILL_SLOPE 15.4, PBLUC_R_SQUARED 0.591, read-out: LUCIFERASE INFECTION ASSAY - IC50
  pIC50: 5.96
  IC90: 1.27 µM

## COc1ccc(CCNC(=O)c2c(S)n(-c3ccc(C)cc3)c3cccc[n+]23)cc1
HEPG2TOX_HILL_SLOPE 12.1, HEPG2TOX_R_SQUARED 0.69, PBLUC_HILL_SLOPE 9.57, PBLUC_R_SQUARED 0.712, read-out: LUCIFERASE INFECTION ASSAY - IC50
  pIC50: 5.13
  IC90: 9.33 µM

## N#Cc1ccc(-c2csc(CS(=O)(=O)Cc3cccc(C(F)(F)F)c3)n2)cc1
[1]
  pIC50: < 5.11
  IC90: > 7.81 µM

## CN(C)Cc1ccc(-c2ccccc2CNC(=O)CC2CC3CCC2C3)cc1 (configuration not stated)
PBLUC_HILL_SLOPE 2, PBLUC_R_SQUARED 0.172, read-out: LUCIFERASE INFECTION ASSAY - IC50
  pIC50: < 5.00
  IC90: > 10 µM

## O=C(Nc1ccc(I)cc1)C1CCN(C(=O)c2ccncc2)CC1
HEPG2TOX_HILL_SLOPE 1.42, HEPG2TOX_R_SQUARED 0.857, PBLUC_HILL_SLOPE 1.13, PBLUC_R_SQUARED 0.975, read-out: LUCIFERASE INFECTION ASSAY - IC50
  pIC50: 6.39
  IC90: 2.8 µM

## COc1ccc(C(C)(C)C)cc1NC(=O)c1ccc(NC(=O)Nc2ccccc2)s1
[1]
  pIC50: 5.25
  IC90: 5.68 µM

## Cc1ccccc1-c1ccnc2c1c(=O)[nH]c(=O)n2Cc1ccccc1
PBLUC_HILL_SLOPE 10.5, PBLUC_R_SQUARED 0.045, read-out: LUCIFERASE INFECTION ASSAY - IC50
  pIC50: < 5.02
  IC90: > 9.61 µM

## CC(C)CCNCC(O)CON=C1c2ccccc2-c2ccccc21 (configuration not stated)
[1]
  pIC50: < 5.00
  IC90: > 10 µM
